# Experimental data from patent EP3831859A1, “COPOLYMER FOR ELECTRODE BINDER AND LITHIUM ION SECONDARY BATTERY” (SHOWA DENKO K.K., priority 2019, dated 2021).
# Experiment: n-octanol/water partition coefficient LogP (JIS Z 7260-117)
# Conditions: n-octanol/water
row,SMILES,chromatographic logP
1,C=C(C)C(=O)OC [methyl methacrylate],1.38
2,C=C(C)C(=O)NCO [N-hydroxymethylmethacrylamide],-0.96
3,C=C(C)C(=O)OCCO [2-hydroxyethyl methacrylate],0.43
4,C=C(C)C(=O)OCCCCCCCCCCCCCCCCCC [stearyl methacrylate],9.87
5,C=C(C)C(=O)OC1CCCCC1 [cyclohexyl methacrylate],3.18
6,C=C(C)C(=O)OCCCC [n-butyl methacrylate],2.74
7,C=CC(=O)OC [methyl acrylate],0.8
8,C=CC(=O)OCCCC [n-butyl acrylate],2.32
9,C=CC(=O)OCC(C)C [isobutyl acrylate],2.16
10,C=CC(=O)OCCCCO [4-hydroxybutyl acrylate],0.59
11,C=CC(N)=O [acrylamide],-0.56
12,C=CC(=O)NC [N-methylacrylamide],-0.59
13,C=CC(=O)OCCO [2-hydroxyethyl acrylate],0.01
14,C=C(C)C(=O)NCCO [N-hydroxyethylmethacrylamide],-0.95
15,C=CC(=O)OC(C)(C)C [tert-butyl acrylate],2.06
16,C=CC(=O)OCC(CC)CCCC (stereo not drawn) [2-ethylhexyl acrylate],4.2
17,C=CC(=O)OC1CCCCC1 [cyclohexyl acrylate],2.76

# Same assay, conditions: n-octanol/water partition coefficient
row,SMILES,LogP
1,C=CC(=O)OCCCC [n-butyl acrylate],Acrylic acid-n butyl (E-1) LogP = 2.32
2,C=CC(=O)OC1CC2CCC1(C)C2(C)C (stereo not drawn) [isoboronyl acrylate],4.03
3,C=C(C)C(=O)OC1CC2CCC1(C)C2(C)C (stereo not drawn) [isoboronyl methacrylate],4.45

# Same assay, conditions: n-octanol/water, LogP, n-octanol/water partition coefficient
row,SMILES,chromatographic logP
1,C=C(C)C(=O)NC(C)C [N-isopropylmethacrylamide],0.7
2,C=CC(=O)OCC(C)O (stereo not drawn) [2-hydroxypropyl acrylate],0.36
3,C=CC(=O)NCCN(C)C [N-(dimethylaminoethyl) acrylamide],-0.28
4,C=CC(=O)OCC [ethyl acrylate],1.32
5,C=CC(=O)OCCC(=O)O [β-carboxyethyl acrylate],0.31
6,C=CC(=O)NCN(C)C [N-(dimethylaminomethyl) acrylamide],-0.47
7,C=C(C)C(=O)NCC [N-ethylmethacrylamide],0.34
8,C=C(C)C(N)=O [methacrylamide],-0.14
9,C=C(C)C(=O)NC [N-methylmethacrylamide],-0.17
10,C=C(CC(=O)O)C(=O)O [itaconic acid],-0.08
11,O=C(O)/C=C\C(=O)O [maleic acid],-0.45
12,C=C(C)C(=O)OC(C)C [isopropyl methacrylate],2.07
13,C=CC(=O)NCCCN(C)C [N-(dimethylaminopropyl) acrylamide],-0.24
14,O=C(O)/C=C/C(=O)O [fumaric acid],-0.45
15,C=C(C)C(=O)OCC(C)C [isobutyl methacrylate],2.58
16,C=CC(=O)NCCC [N-propylacrylamide],0.43
17,C/C=C/C(=O)O [crotonic acid],0.66
18,C=C(C)C(=O)OC(C)(C)C [tert-butyl methacrylate],2.48
19,C=CC(=O)OCCCCCCCCCCCCCCCCCC [stearyl acrylate],9.45
20,C=C(C)C(=O)OCC(C)O (stereo not drawn) [2-hydroxypropyl methacrylate],0.78
21,C=C(C)C(=O)NCC(C)O (stereo not drawn) [N-(2-Hydroxypropyl) methacrylamide],0.95
22,C=C(C)C(=O)OCCC [n-propyl methacrylate],2.23
23,C=CC(=O)NCC(C)O (stereo not drawn) [N-(2-hydroxypropyl) acrylamide],-1.37

# Experiment: physchem
# Conditions: not given
row,SMILES,chromatographic logP
1,C=CC(=O)NC(C)(C)CC(C)=O [diacetone acrylamide],0.04

# Same assay, conditions: LogP
row,SMILES,chromatographic logP
1,C=CC(=O)NCC [N-ethylacrylamide],-0.08
2,"C=CC(=O)N(C)C [N, N-dimethylacrylamide]",-0.14
3,C=C(C)C(=O)OCC(CC)CCCC (stereo not drawn) [2-ethylhexyl methacrylate],4.62
4,C=CC(=O)NCO [N-hydroxymethylacrylamide],-1.38
